Literature values as cited in patent US20180066081A1, “SUBSTITUTED CYCLIC ETHER POLYMERS AND CONJUGATES AND USES THEREOF” (UNIVERSITY OF IOWA RESEARCH FOUNDATION, priority 2015, published 2018).

Settings: chlorhexidine rinses (e.g., PERIDEX, chlorhexidine gluconate 0.12%); from package insert

active compound retained in the oral cavity following application: about 30%
SMILES: [H]/N=C(\N/C(=N/[H])NCCCCCCNC(=N)NC(=N)Nc1ccc(Cl)cc1)Nc1ccc(Cl)cc1 [chlorhexidine]
